Measured values from patent US6858707B1, “Hypersensitive response elicitor fragments which are active but do not elicit a hypersensitive response” (EDEN Bioscience Corporation, priority 1998, dated 2005).
Values joined by “and” are separate entries in the source; they are usually repeats but may differ in a detail not shown here. Identical values can stand only once.

Key:
[1] = test system: tomato seeds (variety, Marglobe); assay: 13 amino acid peptide: tomato seedling growth after seed soak; assay type: in vivo
Protocol: The synthesized peptide was resuspended in 10 ml of 5 mM potassium phosphate buffer and, then, diluted to 1 and 100 ng/ml with the same buffer. About 100 tomato seeds (variety, Marglobe) were submerged in 20 ml of peptide solution overnight. The soaked seeds were planted in an 8 inch pot with artificial soil. Seeds soaked in the buffer without the peptide were used as a control. After seedlings emerged and the first two true leaves fully expanded, the height of the tomato seedlings was recorded.

[2] = test system: tobacco and other tested plants; assay: 13 amino acid peptide: HR in tobacco and other tested plants; assay type: in vivo
parsley cells = settings: H+/Ca2+ influxes, K+/Cl− effluxes, active oxygen production, SAR gene induction, phytoalexin accumulation; cited from earlier work
[3] = test system: tomato (Lycopersicon spp. cv. Marglobe); assay: Induction of growth enhancement (GE/PGE), tomato seed soak; assay type: in vivo; settings: oligopeptides, Table 5; tomato height vs buffer
Protocol: Sixty tomato (Lycopersicon spp. cv. […] The next morning, the sixty seeds were sewn in three pots and 12-15 days later and again 18-20 days later the heights of the 10 tallest tomato plants per pot were measured and compared with the heights of the control plants treated only with phosphate buffer. Analyses were done on the heights to determine if there was a significant difference in the height of the plants treated with the truncated proteins compared with the buffer control, and thereby determine whether the proteins induced growth enhancement.

TMV [4] = assay: Induction of systemic acquired resistance (SAR), TMV lesions on tobacco; assay type: in vivo, Nicotiana tabacum; settings: oligopeptides, Table 5; reduction in TMV lesions vs buffer control
[5] = cited from earlier work
tobacco leaves = assay: HR test of HrpZ fragment preparations in tobacco leaves; assay type: in vivo; parameters: key to HR elicitation: +, elicits HR in tobacco leaves; −, no HR in tobacco leaves
Protocol: Amino acid fragments 152-294 and 190-294 were chosen for further analysis and characterization. It was expected that the fragment 152-294 contained a domain that elicited the HR, while fragment 190-294 contained no domain that elicited the HR. The cultures were spun down, and the bacteria resuspended in 40 ml of 10 mM Tris pH 8.0. Twenty μl of antifoam and 40 μl of 200 mM PMSF were added, and the bacteria was sonicated to break open the cells. The bacterial debris was removed by centrifugation, and the supernatant was placed in a boiling water bath for 10 min. The precipitate was removed by centrifugation and the supernatant, a crude protein preparation, was retained for tests.
Fifteen μl of each supernatant was run on a gel and stained to determine if the protein was present. It was estimated that about five times as much of the 152-294 fragment was present as the 190-294 fragment. Several dilutions of each preparation were infiltrated into tobacco leaves on two plants for HR tests (Table 7).

TMV [6] = assay: HrpZ fragments: induced resistance to TMV in tobacco; assay type: in vivo; settings: % reduction in TMV lesions in unsprayed leaf of tobacco; 152-294 preparation diluted 40-fold, 190-294 diluted 8-fold
Protocol: (§1) The fragment preparations were then tested for inducing resistance to TMV and for growth enhancement. Due to the difference in concentration of the HrpZ fragments, the 152-294 preparation was diluted 40-fold and the 190-294 preparation was diluted 8-fold. […] In contrast, the 152-294 aa fragment reduced the number of TMV lesions by only 55%. As also shown in Table 8, plants treated with the 152-294 aa fragment grew 4.64% more than buffer treated plants, while plants treated with the 190-294 aa fragment grew 2.62% more than the buffer treated plants.

tomato = assay: HrpZ fragments: growth enhancement (PGE); assay type: in vivo; settings: % greater height than buffer sprayed plants; 152-294 preparation diluted 40-fold, 190-294 diluted 8-fold
Protocol: To test whether non-HR eliciting fragments derived from HrpZ, the hypersensitive response elicitor from Pseudomonas syringae pv. syringae, is able to induce disease resistance, several fragment constructs were made and the expressed fragment proteins were tested for HR elicitation and disease resistance induction in tobacco and growth promotion in tomato.
as §1

NH2-Val-Trp-Asn-Gln-Pro-Val-Arg-Gly-Phe-Lys-Val-Tyr-Glu-COOH (H-VWNQPVRGFKVYE-OH; listed as Phytophthora megasperma) [13 amino acid peptide, oligopeptide derived from the 42 kDa glycoprotein elicitor of Phytophthora megasperma]
% Change ([1]; height increase vs buffer, 100 ng/ml peptide): 12.6% | Height of seedlings (cm) ([1]; individual tomato seedlings, seeds soaked overnight in 100 ng/ml peptide, listed as Peptide Solution): 6.5 cm (5×) and 6.0 cm (5×) | Average (cm) ([1]; mean seedling height, 100 ng/ml peptide): 6.25 cm | HR elicitation [2]: not able to elicit the HR | defense response in parsley cells (parsley cells): sufficient to elicit a complex defense response

oligo 121-150: synthesized oligopeptide, amino acids 121-150 of SEQ ID NO: 23 (TTSTTNSPLDQALGINSTSQNDDSTSGTDS; listed as Erwinia amylovora)
PGE ht>buffer [3]: 17.3% | TMV efficacy (TMV [4]): 60.0%

oligo 137-156: synthesized oligopeptide, amino acids 137-156 of SEQ ID NO: 23 (STSQNDDSTSGTDSTSDSSD; listed as Erwinia amylovora)
PGE ht>buffer [3]: 7.4% | TMV efficacy (TMV [4]): −87.7%

oligo 137-166: synthesized oligopeptide, amino acids 137-166 of SEQ ID NO: 23 (STSQNDDSTSGTDSTSDSSDPMQQLLKMFS; listed as Erwinia amylovora)
PGE ht>buffer [3]: 12.0% | TMV efficacy (TMV [4]): 61.2%

oligo 150-179: synthesized oligopeptide, amino acids 150-179 of SEQ ID NO: 23 (STSDSSDPMQQLLKMFSEIMQSLFGDGQDG; listed as Erwinia amylovora)
PGE ht>buffer [3]: 10.1% | TMV efficacy (TMV [4]): 72.9%

B1: hypersensitive response elicitor polypeptide or protein derived from Erwinia amylovora: elicitor from Erwinia amylovora, amino acid sequence SEQ ID NO: 23 (protein, listed as Erwinia amylovora)
chain: MSLNTSGLGASTMQISIGGAGGNNGLLGTSRQNAGLGGNSALGLGGGNQNDTVNQLAGLLTGMMMMMSMMGGGGLMGGGLGGGLGNGLGGSGGLGEGLSNALNDMLGGSLNTLGSKGGNNTTSTTNSPLDQALGINSTSQNDDSTSGTDSTSDSSDPMQQLLKMFSEIMQSLFGDGQDGTQGSSSGGKQPTEGEQNAYKKGVTDALSGLMGNGLSQLLGNGGLGGGQGGNAGTGLDGSSLGGKGLQNLSGPVDYQQLGNAVGTGIGMKAGIQALNDIGTHRHSSTRSFVNKGDRAMAKEIGQFMDQYPEVFGKPQYQKGPGQEVKTDDKSWAKALSKPDDDGMTPASMEQFNKAKGMIKRPMAGDTGNGNLQARGAGGSSLGIDAMMAGDAINNMALGKLGAA
heat stable at 100° C. for [5]: at least 10 minutes

B2: HrpZ Fragment 190-294: amino acids 190-294 of HrpZ (SEQ ID NO: 31), calmodulin-binding peptide fusion, crude preparation (protein, listed as Pseudomonas syringae)
chain: DIIGQQLGNQQSDAGSLAGTGGGLGTPSSFSNNSSVMGDPLIDANTGPGDSGNTRGEAGQLIGELIDRGLQSVLAGGGLGTPVNTPQTGTSANGGQSAQDLDQLL
modifications: calmodulin-binding peptide fusion
HR elicitation (in words) (tobacco leaves; dilutions infiltrated into tobacco leaves): did not | HR test, dilution 1:2 (tobacco leaves; preparation diluted 1:2 with MilliQ water, result for each of two plants): −,− | HR test, dilution 1:5 (tobacco leaves; preparation diluted 1:5 with MilliQ water, result for each of two plants): −,− | HR test, dilution 1:25 (tobacco leaves; preparation diluted 1:25 with MilliQ water, result for each of two plants): −,− | HR test, dilution 1:125 (tobacco leaves; preparation diluted 1:125 with MilliQ water, result for each of two plants): −,− | HR elicitation (tobacco leaves; tobacco leaves): − | TMV (% efficacy) (TMV [6]): 85% and 85.25% | PGE(% > buffer ht) (tomato): 2.62%
